Laboratory results taken from the supplement of paper PMC10307832.

What was measured:
Experiment in all cases: relative viability (nuclei count vs DMSO), 5 days (fraction); higher = more cells survive
[1] = compound: COc1cc(Nc2ncc(F)c(Nc3ccc4c(n3)NC(=O)C(C)(C)O4)n2)cc(OC)c1OC [R406] + COc1cc2c(Oc3ccc(NC(=O)C4(C(=O)Nc5ccc(F)cc5)CC4)cc3F)ccnc2cc1OCCCN1CCOCC1 [Foretinib] (partner 0.25 µM)
Summary of the method: (§1)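 Each reported value is a median over duplicate plates. It expresses relative viability: treated-well nuclei count divided by vehicle-well nuclei count. Lung cancer cell lines in 1536-well plates were dosed by pin tool a day after seeding, alone with one drug or with a fixed anchor-drug dose plus five library-drug doses (not always all listed) in √10 steps, and nuclei were counted after 5 days.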

[2] = compound: COc1cc(Nc2ncc(F)c(Nc3ccc4c(n3)NC(=O)C(C)(C)O4)n2)cc(OC)c1OC [R406] + C[C@@H](Oc1cc(-c2cnn(C3CCNCC3)c2)cnc1N)c1c(Cl)ccc(F)c1Cl [Crizotinib] (partner 1 µM)
Summary of the method: as §1

[3] = compound: COc1cc(Nc2ncc(F)c(Nc3ccc4c(n3)NC(=O)C(C)(C)O4)n2)cc(OC)c1OC [R406] + C[C@]1(O)C[C@@H](c2nc(-c3ccc4ccc(-c5ccccc5)nc4c3)c3c(N)nccn32)C1 [Linsitinib] (partner 1 µM)
Summary of the method: as §1

[4] = compound: O=C(/C=C/c1cccnc1)NCCCCC1CCN(C(=O)c2ccccc2)CC1 [Daporinad] + CS(=O)(=O)N1CCN(Cc2cc3nc(-c4cccc5[nH]ncc45)nc(N4CCOCC4)c3s2)CC1 [Pictilisib] (partner 1 µM)
Summary of the method: as §1

Cell Line	relative viability ([1]; first compound 0.08 µM)	relative viability ([1]; first compound 0.253 µM)	relative viability ([1]; first compound 0.8 µM)	relative viability ([1]; first compound 2.53 µM)	relative viability ([1]; first compound 8 µM)	relative viability ([2]; first compound 0.08 µM)	relative viability ([2]; first compound 0.253 µM)	relative viability ([2]; first compound 0.8 µM)	relative viability ([2]; first compound 8 µM)	relative viability ([3]; first compound 0.08 µM)	relative viability ([3]; first compound 0.253 µM)	relative viability ([3]; first compound 0.8 µM)	relative viability ([3]; first compound 8 µM)	relative viability ([4]; first compound 0.0005 µM)	relative viability ([4]; first compound 0.001581 µM)	relative viability ([4]; first compound 0.005 µM)	relative viability ([4]; first compound 0.01581 µM)	relative viability ([2]; first compound 2.53 µM)	relative viability ([3]; first compound 2.53 µM)
HCC-15	1.07	1.12	1.19	1.01	0.643	0.837	1.01	0.834	0.635	0.856	0.914	1.01	0.776	0.664	0.8	0.79	0.856	–	–
A-427	1.09	1.35	1.24	0.983	0.814	1	1.14	0.914	0.273	1.09	1.19	1.17	0.964	0.559	0.79	0.684	0.716	0.629	1.07
NCI-H2228	0.798	1.01	0.972	0.567	0.337	0.572	0.435	0.528	0.101	0.729	0.813	0.889	0.154	0.342	0.358	0.495	0.464	0.164	0.273
NCI-H1734	0.812	1.07	0.997	0.52	0.448	0.707	0.814	0.654	0.292	0.912	0.859	0.949	0.554	0.454	0.529	0.557	0.431	0.542	0.818
NCI-H441	0.863	1.13	1.18	0.718	0.406	0.72	0.975	0.846	0.461	0.377	0.609	0.662	0.47	0.435	0.631	0.588	0.507	0.599	0.411
PC-3 [JPC-3]	0.981	1.08	1.09	0.827	0.372	1.04	1	1.02	0.885	0.981	0.977	1.01	0.791	0.703	0.987	0.824	0.659	0.98	1
NCI-H1915	0.983	1.16	1.11	–	0.989	0.898	0.975	0.959	0.874	1.09	1.12	1.09	0.98	0.967	1.15	1.13	0.929	0.782	1.09
NCI-H1666	0.926	1.07	0.977	0.869	0.59	0.92	1.3	0.973	0.461	0.837	0.792	0.872	0.449	0.508	0.482	0.456	0.494	0.849	0.735
HCC-366	0.957	0.933	0.956	0.847	0.137	0.581	0.794	0.81	0.294	0.676	0.776	0.87	0.0785	0.14	0.167	0.152	0.201	–	–
NCI-H2170	0.964	1.11	1	0.916	0.814	1.16	1.25	1.15	0.495	–	–	–	–	0.315	0.331	0.301	0.407	0.815	–
NCI-H727	0.954	0.841	0.851	0.752	0.697	0.866	0.852	0.898	0.301	0.252	0.28	0.319	0.237	0.359	0.354	0.414	0.284	0.714	0.35
RERF-LC-KJ	0.937	0.951	0.997	0.785	0.809	0.762	0.838	0.875	0.771	0.848	0.846	1.03	0.695	0.58	0.529	0.525	0.695	0.81	0.657
NCI-H2342	0.889	1.21	1.22	0.863	0.88	–	–	–	–	–	–	–	–	–	–	–	–	–	–
Calu-6	0.842	0.927	0.924	0.687	0.553	0.697	0.954	0.909	0.36	0.937	1.08	1.12	0.49	0.917	0.907	0.81	0.421	0.494	–
LC-2-ad	0.899	1.03	0.903	0.7	0.547	0.436	0.456	0.455	0.357	0.828	0.832	0.729	0.158	0.389	0.514	0.64	0.675	0.381	0.385
CAL-12T	1.03	1.23	1.22	1.09	0.812	0.693	0.746	0.731	0.121	0.806	0.909	0.943	0.675	0.305	–	0.442	0.494	0.503	0.495
SK-LU-1	0.708	0.816	0.992	0.439	0.12	0.997	1.07	1.15	0.155	1.03	1.07	1.07	0.292	0.482	0.601	0.637	0.595	0.424	0.595
NCI-H1650	1.28	1.23	1	0.723	0.117	1.05	1.09	0.961	0.139	–	–	–	–	0.503	0.727	0.715	0.733	0.327	–
BEN	0.884	0.609	0.691	0.879	0.578	0.923	1.32	1.15	0.641	0.946	1.22	0.981	0.708	0.624	0.62	0.597	0.776	0.785	0.877

Cell Line	relative viability ([1]; first compound 0.08 µM)	relative viability ([1]; first compound 0.253 µM)	relative viability ([1]; first compound 0.8 µM)	relative viability ([1]; first compound 2.53 µM)	relative viability ([1]; first compound 8 µM)	relative viability ([2]; first compound 0.08 µM)	relative viability ([2]; first compound 0.253 µM)	relative viability ([2]; first compound 0.8 µM)	relative viability ([2]; first compound 8 µM)	relative viability ([3]; first compound 0.08 µM)	relative viability ([3]; first compound 0.253 µM)	relative viability ([3]; first compound 0.8 µM)	relative viability ([3]; first compound 8 µM)	relative viability ([4]; first compound 0.0005 µM)	relative viability ([4]; first compound 0.001581 µM)	relative viability ([4]; first compound 0.005 µM)	relative viability ([4]; first compound 0.01581 µM)	relative viability ([2]; first compound 2.53 µM)	relative viability ([3]; first compound 2.53 µM)
EMC-BAC-2	0.98	1.05	1.11	0.385	0.579	0.747	0.855	0.796	0.262	0.817	0.87	0.822	0.53	0.628	0.567	0.485	0.319	0.738	0.707
LU99A	0.801	0.794	0.914	0.588	0.345	0.474	0.553	0.607	0.218	0.518	0.499	0.572	0.197	0.312	0.383	0.392	0.306	–	–
ABC-1	1.08	1.03	1.03	1.15	0.781	1.24	1.38	1.19	0.311	0.863	1.03	0.803	0.555	0.652	0.934	0.734	0.743	0.841	0.594
NCI-H1793	0.582	0.641	0.809	0.464	0.139	–	–	–	–	0.703	1.01	1.2	0.376	0.221	0.354	0.38	0.32	–	0.57
NCI-H1299	1.01	1.14	1.07	1.2	1.02	0.941	0.946	0.977	0.543	0.979	1.09	1.13	0.496	0.736	0.809	0.839	0.739	1.03	0.93
EBC-1	0.102	0.107	0.0997	0.118	0.122	0.155	0.231	0.153	0.166	1.01	1.07	1.13	0.423	0.335	0.43	0.37	0.469	0.209	0.732
NCI-H2347	1.11	1.09	1.29	0.61	0.348	0.588	0.538	0.889	0.487	0.928	1.01	1.06	0.71	0.636	0.788	0.711	0.685	0.556	0.848
NCI-H1993	0.72	0.756	0.846	0.642	0.577	0.933	0.866	0.809	0.661	0.762	0.656	0.709	0.703	0.925	0.684	0.798	0.869	0.75	0.675
NCI-H322M	0.962	0.917	1.03	0.547	0.559	0.811	1.06	0.978	0.438	0.879	0.814	0.983	0.472	0.482	0.55	0.575	0.52	0.611	0.523
PC-14	0.919	0.941	0.97	0.875	0.635	0.92	1.06	0.862	0.687	0.941	1.05	1.01	0.8	0.656	0.726	0.876	0.735	0.79	0.852
HARA	0.867	1.04	1.05	0.751	0.218	0.902	1.06	1.13	0.376	0.772	0.991	1.04	0.288	0.329	0.568	0.436	0.371	1.09	0.819
NCI-H2087	1.2	1.05	1.04	–	0.609	0.825	1.26	0.899	0.936	1.29	1.04	0.914	0.709	0.877	1.1	0.951	0.907	0.983	1.03
NCI-H1437	1.22	1.3	1.26	1.27	1.34	0.944	1.13	0.971	0.716	1.01	1.26	1.24	0.49	0.418	0.527	0.433	0.553	0.864	0.904
NCI-H1792	–	–	–	–	–	0.842	1.03	1.03	0.884	0.484	0.387	0.744	0.505	0.212	0.317	0.25	0.377	0.925	0.411
ChaGo-K-1	0.926	1.07	1.09	0.771	0.531	1.1	0.936	1.23	0.702	–	–	–	–	0.774	0.64	0.702	0.578	1.01	–
HCC-44	–	–	–	–	–	0.771	0.963	0.806	0.341	0.62	0.729	0.758	0.305	0.643	0.658	0.706	0.657	0.721	0.688
NCI-H1623	0.931	0.952	0.962	0.806	0.849	–	–	–	–	–	–	–	–	–	–	–	–	–	–
NCI-H1395	1.03	1.22	1.03	0.736	0.632	–	–	–	–	1.02	1.26	1.18	0.727	0.615	0.697	0.574	0.674	–	0.866
SW 900	0.769	0.779	0.915	0.754	0.519	–	–	–	–	–	–	–	–	–	–	–	–	–	–
